Test results as given in patent publication US9328141B2, “Polypeptides for the treatment or prevention of cancer and uses thereof” (WUHAN KATYGEN PHARMACEUTICALS, INC., priority 2010, dated 2016).

Test system: colon tumor 26
Assay: Anti-cancer effect in vivo, transplanted colon tumor 26 in mice
Set-up: species or system BALB/c male mouse
Settings: cisplatin 1 mg/kg ipx 5, Day 11
Description: The tumors were excised and weighed.
Combine index (CI), CI=AB/(A×B). AB is the T/C of the combined effects of two drugs, A, B either is the T/C of the effect of one drug (when CI<1, these two drugs have combination).

`N.N.[Cl][Pt][Cl]` [Cisplatin, cisplatin] was tested, and the The inhibitive rate was 44% and the “tumor weight x ± s” value was 1.39 ± 0.39 g.
